From patent publication US6602710B1, “Screening method for SREBP pathway-specific inhibitors” (Chugai Seiyaku Kabushiki Kaisha, priority 1998, dated 2003)

What was measured:
CHO-K1 cells = assay: amphotericin B cytotoxicity assay (cholesterol synthesis activity) in CHO-K1 cells; assay type: cell-based, Chinese hamster; conditions: 0.1 μg/ml 25-hydroxycholesterol, 24 hours, FIG. 4
25RA cells = conditions: amphotericin B at various concentrations in PBS, 4 hours, FIG. 3
DM7 cells = assay: amphotericin B cytotoxicity assay in DM7 cells; assay type: cell-based, Chinese hamster; conditions: compared with 25RA, amphotericin B in PBS, 4 hours, FIG. 3
[1] = test system: LDL receptor activity of CHO-K1 cells; assay: 125I-LDL binding assay (LDL receptor activity) in CHO-K1 cells; assay type: cell-based, Chinese hamster; conditions: simvastatin + (1 μM), sterols −, 24 hours
Method: (§1) In order to measure LDL receptor activity, the examples of the present invention use the ^125I-LDL binding assay. However, other suitable means may include incorporation of LDL labeled with a fluorescent lipid DiI into cells or ELISA-mediated measurement of the amount of LDL receptors expressed on the surface of cell membranes, and the screening system of the present invention is not specifically limited to those shown herein.
(§2) On day 0, cells were seeded on 6-well plates at a density of 3×10^4 cells/well, and incubated in F-F12. […] On day 4, the cells were incubated at 4° C. for 2 hours, and then washed twice with PBS. Then, incubation was continued at 4° C. in L-F12 (containing 10 mM Hepes-NaOH, pH 7.4) containing 10 μg/ml ^125I-LDL or 10 μg/ml ^125I-LDL and 400 μg/ml LDL. After 5 hours, the cells were washed with buffer B (150 mM NaCl, 50 mM Tris-HCl, 2 mg/ml BSA, pH 7.4), then buffer C (150 mM NaCl, 50 mM Tris-HCl, pH 7.4) each three times, and incubated with 1 ml of buffer D (50 mM NaCl, 10 mM Hepes-NaOH, 4 mg/ml dextran sulfate, pH 7.4) at 4° C. After one hour, buffer D was recovered and assayed for its radioactivity. The protein level in cells remaining in wells was measured by the BCA method to calculate ^125I-LDL binding per mg of […].

[2] = test system: LDL receptor activity of 25RA cells; assay: 125I-LDL binding assay (LDL receptor activity) in 25RA cells; assay type: cell-based, Chinese hamster; conditions: simvastatin + (1 μM), sterols −, 24 hours
Method: as §1, §2

Structure (SMILES): C[C@H](CCCC(C)(C)O)[C@H]1CC[C@H]2[C@@H]3CC=C4C[C@@H](O)CC[C@]4(C)[C@H]3CC[C@]12C [25-hydroxycholesterol]
- cholesterol synthesis activity (amphotericin B cytotoxicity assay) (CHO-K1 cells): inhibited cholesterol synthesis activity

Structure (SMILES): C[C@@H]1[C@H](O)[C@@H](C)/C=C/C=C/C=C/C=C/C=C/C=C/C=C/[C@H](O[C@@H]2O[C@H](C)[C@@H](O)[C@H](N)[C@@H]2O)C[C@@H]2O[C@](O)(C[C@@H](O)C[C@@H](O)[C@H](O)CC[C@@H](O)C[C@@H](O)CC(=O)O[C@H]1C)C[C@H](O)[C@H]2C(=O)O [amphotericin B]
- survival of cells treated with amphotericin B (25RA cells): decreased depending on the concentration
- survival of cells treated with amphotericin B (DM7 cells): remarkable resistance

Structure (SMILES): CCC(C)(C)C(=O)O[C@H]1C[C@@H](C)C=C2C=C[C@H](C)[C@H](CC[C@@H]3C[C@@H](O)CC(=O)O3)[C@H]21 [simvastatin]
- Cell surface binding of [125I]LDL [1]: 30.1 ng/mg protein
- Cell surface binding of [125I]LDL [2]: 20.9 ng/mg protein
